Measurements taken from patent US5869494A, “Uses for barbituric acid analogs” (priority 1997, dated 1999).

Assays:
Assay in all cases: NCI tumor cell line screen (SRB assay)
Assay type in all cases: cell-based
Set-up in all cases: activity: dose or concentration left out as unconfirmed
[1] = tested on: 786-0; conditions: Homo sapiens, read-out: PERCENT GROWTH
Protocol: (§1) The National Cancer Institute carried out the studies at the direction of the present inventor.
(§2) In the tests, the National Cancer Institute used the SRB (sulforhodamine B) assay as described by Skehan et al., (Journal of the National Cancer Institute, 82:13, Jul. 4, 1990, 1107-1112). Briefly, the assay is as follows. TCA-fixed cells were stained for 30 minutes with 0.4% (wt/vol) SRB dissolved in 1% acetic acid. At the end of the staining period, SRB was removed and cultures were quickly rinsed four times with 1% acetic acid to remove unbound dye. The acetic acid was poured directly into the culture wells from a beaker. […] Residual wash solution was removed by sharply flicking plates over a sink, which ensured the complete removal of rinsing solution. […] After being rinsed, the cultures were air dried until no standing moisture was visible. Bound dye was solubilized with 10 mM unbuffered Tris base (pH 10.5) for 5 minutes on a gyratory shaker.
(§3) Optical density (OD) was read in either a UVmax microtiter plate reader (Molecular Devices, Menlo Park, Calif.) or a Beckman DU-70 spectrophotometer. For maximum sensitivity, OD was measured at 564 nm. Because readings were linear with dye concentrations only below 1.8 OD units, however, suboptimal wavelengths were generally used, so that all samples in an experiment remained within the linear OD range. With most cell lines, wavelengths of approximately 490-530 nm worked well for this purpose.
(§4) Nine different non-small cell lung carcinoma cell lines, six different colon carcinoma cell lines, six different CNS (central nervous system) carcinoma cell lines, seven different melanoma cell lines, six different ovarian carcinoma cell lines, and eight different renal carcinoma cell lines were tested.

[2] = tested on: CAKI-1; conditions: Homo sapiens, read-out: PERCENT GROWTH
Protocol: as §1, §2, §3, §4

[3] = tested on: EKVX; conditions: Homo sapiens, read-out: PERCENT GROWTH
Protocol: as §1, §2, §3, §4

[4] = tested on: HT29; conditions: Homo sapiens, HT-29, read-out: PERCENT GROWTH
Protocol: as §1, §2, §3, §4

[5] = tested on: IGROV1; conditions: Homo sapiens, IGROV-1, read-out: PERCENT GROWTH
Protocol: as §1, §2, §3, §4

[6] = tested on: M14; conditions: Homo sapiens, read-out: PERCENT GROWTH
Protocol: as §1, §2, §3, §4

[7] = tested on: NCI-H226; conditions: Homo sapiens, read-out: PERCENT GROWTH
Protocol: as §1, §2, §3, §4

[8] = tested on: PK-10; conditions: Homo sapiens, read-out: PERCENT GROWTH
Protocol: as §1, §2, §3, §4

[9] = tested on: SF-539; conditions: Homo sapiens, read-out: PERCENT GROWTH
Protocol: as §1, §2, §3, §4

[10] = tested on: SK-OV-3; conditions: Homo sapiens, read-out: PERCENT GROWTH
Protocol: as §1, §2, §3, §4

[11] = tested on: SN12C; conditions: Homo sapiens, read-out: PERCENT GROWTH
Protocol: as §1, §2, §3, §4

[12] = tested on: SNB-19; conditions: Homo sapiens, read-out: PERCENT GROWTH
Protocol: as §1, §2, §3, §4

[13] = tested on: U251; conditions: Homo sapiens, U-251, read-out: PERCENT GROWTH
Protocol: as §1, §2, §3, §4

SMILES: CCCCN1C(=O)CC(=O)N(CCCC)C1=S [Compound C1, 4,6(1H, 5H)-pyrimidinedione, 1,3-dibutyldihydro-2-thioxo]
- activity ([1]; 10^-3.0 Molar): -100%
- activity at 100 µM ([1]; 10^-4.0 Molar): 87%
- activity at 10 µM ([1]; 10^-5.0 Molar): 115%
- activity at 1 µM ([1]; 10^-6.0 Molar): 82%
- activity ([2]; 10^-3.0 Molar): -100%
- activity at 100 µM ([2]; 10^-4.0 Molar): 92%
- activity at 10 µM ([2]; 10^-5.0 Molar): 73%
- activity at 1 µM ([2]; 10^-6.0 Molar): 85%
- activity at 0.1 µM ([2]; 10^-7.0 Molar): 103%
- activity ([3]; 10^-3.0 Molar): -69%
- activity at 100 µM ([3]; 10^-4.0 Molar): 94%
- activity at 10 µM ([3]; 10^-5.0 Molar): 104%
- activity at 1 µM ([3]; 10^-6.0 Molar): 106%
- activity at 0.1 µM ([3]; 10^-7.0 Molar): 98%
- activity ([4]; 10^-3.0 Molar): -96%
- activity at 100 µM ([4]; 10^-4.0 Molar): 76%
- activity at 1 µM ([4]; 10^-6.0 Molar): 103%
- activity at 0.1 µM ([4]; 10^-7.0 Molar): 102%
- activity ([5]; 10^-3.0 Molar): -85%
- activity at 100 µM ([5]; 10^-4.0 Molar): 88%
- activity at 10 µM ([5]; 10^-5.0 Molar): 103%
- activity at 1 µM ([5]; 10^-6.0 Molar): 107%
- activity at 0.1 µM ([5]; 10^-7.0 Molar): 105%
- activity ([6]; 10^-3.0 Molar): -100%
- activity at 100 µM ([6]; 10^-4.0 Molar): 94%
- activity at 10 µM ([6]; 10^-5.0 Molar): 105%
- activity at 1 µM ([6]; 10^-6.0 Molar): 100%
- activity at 0.1 µM ([6]; 10^-7.0 Molar): 106%
- activity ([7]; 10^-3.0 Molar): -39%
- activity at 100 µM ([7]; 10^-4.0 Molar): 90%
- activity at 10 µM ([7]; 10^-5.0 Molar): 106%
- activity at 1 µM ([7]; 10^-6.0 Molar): 100%
- activity at 0.1 µM ([7]; 10^-7.0 Molar): 96%
- activity [8]: -19%
- activity at 0.1 µM [8]: 94%
- activity at 1 µM [8]: 94%
- activity at 10 µM [8]: 98%
- activity at 100 µM [8]: 74%
- activity ([9]; 10^-3.0 Molar): -100%
- activity at 100 µM ([9]; 10^-4.0 Molar): 72%
- activity at 10 µM ([9]; 10^-5.0 Molar): 101%
- activity at 1 µM ([9]; 10^-6.0 Molar): 104%
- activity at 0.1 µM ([9]; 10^-7.0 Molar): 95%
- activity ([10]; 10^-3.0 Molar): -100%
- activity at 100 µM ([10]; 10^-4.0 Molar): 85%
- activity at 10 µM ([10]; 10^-5.0 Molar): 92%
- activity at 1 µM ([10]; 10^-6.0 Molar): 90%
- activity at 0.1 µM ([10]; 10^-7.0 Molar): 95%
- activity ([11]; 10^-3.0 Molar): -42%
- activity at 100 µM ([11]; 10^-4.0 Molar): 62%
- activity at 10 µM ([11]; 10^-5.0 Molar): 89%
- activity at 1 µM ([11]; 10^-6.0 Molar): 58%
- activity at 0.1 µM ([11]; 10^-7.0 Molar): 90%
- activity ([12]; 10^-3.0 Molar): -54%
- activity at 100 µM ([12]; 10^-4.0 Molar): 90%
- activity at 10 µM ([12]; 10^-5.0 Molar): 109%
- activity at 1 µM ([12]; 10^-6.0 Molar): 99%
- activity at 0.1 µM ([12]; 10^-7.0 Molar): 105%
- activity ([13]; 10^-3.0 Molar): -55%
- activity at 100 µM ([13]; 10^-4.0 Molar): 54%
- activity at 10 µM ([13]; 10^-5.0 Molar): 102%
- activity at 1 µM ([13]; 10^-6.0 Molar): 111%
- activity at 0.1 µM ([13]; 10^-7.0 Molar): 104%
